Test results: patent US20260308185A1, “STAT DEGRADERS AND USES THEREOF” (Recludix Pharma, Inc., priority 2023, published 2026)

Experiments:
[1] = target: T1, Recombinant STAT3 protein (STAT3(G127-I722)) (Homo sapiens, UniProt P40763); experiment: STAT3 Fluorescence Polarization (FP) Assay; type: binding; conditions: 25 nM STAT3(G127-I722), 2 nM 5-FAM-GpYLPQTV-NH2 probe, pH 7.4, 45-minute incubation at room temperature
T1 construct: Recombinant STAT3 protein (STAT3(G127-I722))
Procedure: An FP assay was developed to determine IC50 values for test substances. Recombinant STAT3 protein (STAT3(G127-I722)) at 25 nM was combined with a fluorescently labeled, phosphotyrosine peptide probe (5-FAM-GpYLPQTV-NH2) at 2 nM in FP buffer (10 mM HEPES pH 7.4, 50 mM NaCl. 1 mM EDTA, 0.05% Tween 20, 2 mM DTT). 50 μL of STAT3-probe mixture was added to serial diluted compounds in black, 96-well plates (Greiner BioOne 655076) to a final concentration of 1% DMSO. Reaction components were mixed, and FP was measured after 45-minute incubation at room temperature using a Tecan Spark multimode plate reader. FP signal (mP) was plotted against the log concentration of the test substances and IC50 values were calculated by nonlinear regression analysis using GraphPad Prism software. For STAT3 FP assay, A=≤100 nM; B=>100-1000 nM; C=>1-10 μM; and D=>10 μM.

[2] = target: T2, Recombinant STAT6 protein (STAT6(W123-T658)) (Homo sapiens, UniProt P42226); experiment: STAT6 Fluorescence Polarization (FP) Assay; type: binding; conditions: 250 nM STAT6(W123-T658), 2 nM 5-FAM-Ap[…]-NH2 probe, pH 7.4, 45-minute incubation at room temperature
T2 construct: Recombinant STAT6 protein (STAT6(W123-T658))
T2 sequence (P42226 123-658): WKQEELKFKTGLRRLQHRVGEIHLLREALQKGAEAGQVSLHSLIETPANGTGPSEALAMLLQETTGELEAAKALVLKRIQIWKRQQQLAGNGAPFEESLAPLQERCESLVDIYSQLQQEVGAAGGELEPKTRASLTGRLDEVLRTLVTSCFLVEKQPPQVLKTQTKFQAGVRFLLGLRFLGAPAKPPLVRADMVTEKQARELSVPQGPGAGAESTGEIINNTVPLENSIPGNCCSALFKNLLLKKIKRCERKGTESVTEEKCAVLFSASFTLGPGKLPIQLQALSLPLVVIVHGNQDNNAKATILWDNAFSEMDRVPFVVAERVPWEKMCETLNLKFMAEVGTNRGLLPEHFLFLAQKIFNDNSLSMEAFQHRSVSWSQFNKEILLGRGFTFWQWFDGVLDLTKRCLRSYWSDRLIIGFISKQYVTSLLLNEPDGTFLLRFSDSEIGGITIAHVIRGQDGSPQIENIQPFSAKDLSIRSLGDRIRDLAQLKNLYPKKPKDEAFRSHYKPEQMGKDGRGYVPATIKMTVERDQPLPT
Procedure: An FP assay was developed to determine IC50 values for test substances. Recombinant STAT6 protein (STAT6(W123-T658)) at 250 nM was combined with a fluorescently labeled, phosphotyrosine peptide probe (5-FAM-Ap[…]-NH2) at 2 nM in FP buffer (10 mM HEPES pH 7.4, 50 mM NaCl, 1 mM EDTA, 0.05% Tween 20, 2 mM DTT). 50 μL of STAT6-probe mixture was added to serial diluted compounds in black, 96-well plates (Greiner BioOne 655076) to a final concentration of 1% DMSO. Reaction components were mixed, and FP w as measured after 45-minute incubation at room temperature using a Tecan Spark multimode plate reader. FP signal (mP) was plotted against the log concentration of the test substances and IC50 values were calculated by nonlinear regression analysis using GraphPad Prism software. For STAT6 FP assay. A=≤300 nM; B=>300-3000 nM; C=>3-30 μM; and D=>30 μM.

[3] = system: pSTAT3 (pY705-STAT3) in PBMC; experiment: MSD-pSTAT-PBMC Assay (pSTAT3); type: cell-based; conditions: compound 3 hrs, then 10 ng/mL IL-6 for 10 min
From the text: (§1) Cryopreserved Peripheral Blood Mononuclear Cells (PBMC) are from AllCells. Recombinant Human […] and IL-6 are from Peprotech. Mouse monoclonal anti-STAT3 antibody, rabbit monoclonal anti-pY705-STAT3 antibody, rabbit monoclonal Anti-pY641-STAT6 antibody, and lysis buffer are from Cell Signaling Technology (CST). Mouse monoclonal anti-STAT6 antibody is from BioLegend. Assay plates, blocker, and anti-rabbit secondary antibody are from Meso Scale Discovery (MSD).
(§2) Cryopreserved PBMCs were thawed out and allowed to recover overnight in IMDM+10% heat-inactivated FBS prior to plating 50,000 (STAT3) or 25,000 (STAT6) cells per well in 96-well U-bottom tissue culture plates. Cells were treated with compound for 3 hrs, then stimulated with 10 ng/mL IL-6 (STAT3) or 1 ng/mL IL-4 (STAT6) for 10 min. Cells were then spun down and washed with ice-cold PBS prior to lysing the cell pellet with 1× lysis buffer (CST) with 1× HALT protease and phosphatase inhibitor cocktail (Thermo). Lysates were transferred to and incubated overnight at 4° C. with shaking in QuickPlex 96-well high bind assay plates (MSD) pre-coated overnight with 30 μL per well of 0.6 μg/mL mouse monoclonal anti-STAT3 antibody (STAT3) or 2 μg/mL mouse monoclonal anti-STAT6 antibody (STAT6) in 1×PBS, and pre-blocked for 1 hour with 3% Blocker-A (MSD). Captured protein in the assay plates were then washed and probed with 25 μL per well of 0.25 μg/ml rabbit monoclonal anti-pY705-STAT3 antibody (STAT3) or 0.18 μg/ml rabbit monoclonal Anti-pY641-STAT6 antibody (STAT6) in 1% Blocker-A for 1 hour at room temperature with shaking, then washed and probed with 25 ul per well of 1 ug/ml Sulfo-TAG Labeled Goat Anti-Rabbit Antibody (MSD) in 1% Blocker-A for 1 hour at room temperature with shaking. Assay plates were then washed and 150 μL of 1× Read Buffer-T (MSD) was added to each well prior to reading on an SQ120 MSD Plate Reader. Assay signal from each sample was subtracted by the signal from unstimulated control wells and normalized to DMSO control wells, IC50 values were calculated using Graph Pad Prism Dose-Response Nonlinear Regression with variable slope. For both pSTAT3 and pSTAT6 A=≤100 nM; B=>100-1000 nM; C=>1000-3000 nM; and D=>3 μM.

[4] = system: pSTAT6 (pY641-STAT6) in PBMC; experiment: MSD-pSTAT-PBMC Assay (pSTAT6); type: cell-based; conditions: compound 3 hrs, then 1 ng/mL IL-4 for 10 min
From the text: as §1, §2

T1 sequence (P40763 127-722): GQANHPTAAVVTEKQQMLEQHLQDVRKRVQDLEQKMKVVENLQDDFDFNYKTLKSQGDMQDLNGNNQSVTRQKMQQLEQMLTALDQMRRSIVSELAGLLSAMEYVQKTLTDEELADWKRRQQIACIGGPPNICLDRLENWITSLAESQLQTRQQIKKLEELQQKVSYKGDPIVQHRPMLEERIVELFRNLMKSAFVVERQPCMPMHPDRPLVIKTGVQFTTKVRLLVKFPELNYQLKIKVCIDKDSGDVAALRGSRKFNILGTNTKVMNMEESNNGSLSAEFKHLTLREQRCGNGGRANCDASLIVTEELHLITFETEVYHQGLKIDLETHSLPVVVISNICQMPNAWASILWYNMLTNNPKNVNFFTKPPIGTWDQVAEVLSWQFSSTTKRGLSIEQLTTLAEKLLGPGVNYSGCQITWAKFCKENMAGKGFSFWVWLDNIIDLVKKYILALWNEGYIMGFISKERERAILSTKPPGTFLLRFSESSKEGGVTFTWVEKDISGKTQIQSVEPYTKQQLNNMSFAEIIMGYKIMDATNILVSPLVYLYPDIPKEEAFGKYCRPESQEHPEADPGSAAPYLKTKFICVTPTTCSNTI

| SMILES | IC50 [1] [nM] | IC50 [2] [µM] | IC50 [3] [nM] | IC50 [4] [nM] |
| --- | --- | --- | --- | --- |
| O=C1CCC(N2Cc3c(C#CCCCCCC(=O)NC4(c5ccccn5)CN(C(=O)[C@@H]5CC[C@@H]6C[C@H]7C[C@H]7C[C@H](NC(=O)c7cc8cc(C(F)(F)P(=O)(O)O)ccc8s7)C(=O)N65)C4)cccc3C2=O)C(=O)N1 (stereo partly drawn) [Compound 1, ((2-(((3S,6S,7aS,8aR,9aR)-3-(3-(8-(2-(2,6-dioxopiperidin-3-yl)-1-oxoisoindolin-4-yl)oct-7-ynamido)-3-(pyridin-2-yl)azetidine-1-carbonyl)-5-oxodecahydro-1H-cyclopropa[d]pyrrolo[1,2-a]azocin-6-yl)carbamoyl)benzo[b]thiophen-5-yl)difluoromethyl)phosphonic acid] | < 100 | 3 to 30 | > 3000 |  |
| CCCC(=O)SCCOP(=O)(OCCSC(=O)CCC)C(F)(F)c1ccc2sc(C(=O)NC3CC4CC4CC4CCC(C(=O)N5CC(NC(=O)CCCCCC#Cc6cccc7c6CN(C6CCC(=O)NC6=O)C7=O)(c6ccccn6)C5)N4C3=O)cc2c1 [Compound 2, S,S′-(((((2-(((3S,6S,7aS,8aR,9aR)-3-(3-(8-(2-(2,6-dioxopiperidin-3-yl)-1-oxoisoindolin-4-yl)oct-7-ynamido)-3-(pyridin-2-yl)azetidine-1-carbonyl)-5-oxodecahydro-1H-cyclopropa[d]pyrrolo[1,2-a]azocin-6-yl)carbamoyl)benzo[b]thiophen-5-yl)difluoromethyl)phosphoryl)bis(oxy))bis(ethane-2,1-diyl)) dibutanethioate] |  |  | < 100 | > 3000 |
| CCCC(=O)SCCOP(=O)(OCCSC(=O)CCC)C(F)(F)c1ccc2sc(C(=O)NC3CC4CC4CC4CCC(C(=O)N5CC(c6cnccc6N(C)CCOc6ccc(C7CCC(=O)NC7=O)cc6)C5)N4C3=O)cc2c1 [Compound 12, S,S′-(((((2-(((3S,6S,7aS,8aR,9aR)-3-(3-(4-((2-(4-(2,6-dioxopiperidin-3-yl)phenoxy)ethyl)(methyl)amino)pyridin-3-yl)azetidine-1-carbonyl)-5-oxodecahydro-1H-cyclopropa[d]pyrrolo[1,2-a]azocin-6-yl)carbamoyl)benzo[b]thiophen-5-yl)difluoromethyl)phosphoryl)bis(oxy))bis(ethane-2,1-diyl)) dibutanethioate] |  |  | < 100 |  |
| N#CC1CN(C(=O)C2CCC3CC4CC4CC(NC(=O)c4cc5cc(C(F)(F)P(=O)(O)O)ccc5s4)C(=O)N32)CC1c1cccc(OCCOCCOc2cccc3c2CN(C2CCC(=O)NC2=O)C3=O)c1 [Compound 15, ((2-(((3S,6S,7aS,8aR,9aR)-3-((rel-3S,4R)-3-cyano-4-(3-(2-(2-((2-(2,6-dioxopiperidin-3-yl)-1-oxoisoindolin-4-yl)oxy)ethoxy)ethoxy)phenyl)pyrrolidine-1-carbonyl)-5-oxodecahydro-1H-cyclopropa[d]pyrrolo[1,2-a]azocin-6-yl)carbamoyl)benzo[b]thiophen-5-yl)difluoromethyl)phosphonic acid] | 100 to 1000 | < 0.3 |  | > 3000 |
| CCCC(=O)SCCOP(=O)(OCCSC(=O)CCC)C(F)(F)c1ccc2sc(C(=O)N[C@H]3C[C@@H]4C[C@@H]4C[C@H]4CCC(C(=O)N5CC(c6cnccc6N6CCN(C(=O)COc7ccc(C8CCC(=O)NC8=O)cc7)CC6)C5)N4C3=O)cc2c1 (stereo partly drawn) [Compound 22, S,S′-(((((2-(((3S,6S,7aS,8aR,9aR)-3-(3-(4-(4-(2-(4-(2,6-dioxopiperidin-3-yl)phenoxy)acetyl)piperazin-1-yl)pyridin-3-yl)azetidine-1-carbonyl)-5-oxodecahydro-1H-cyclopropa[d]pyrrolo[1,2-a]azocin-6-yl)carbamoyl)benzo[b]thiophen-5-yl)difluoromethyl)phosphoryl)bis(oxy))bis(ethane-2,1-diyl)) dibutanethioate] |  |  | < 100 |  |

The next lines start with results.

| IC50 [1] [nM] | IC50 [2] [µM] | SMILES | IC50 [3] [nM] | IC50 [4] [nM] |
| --- | --- | --- | --- | --- |
| 1000 to 10000 | 0.3 to 3 | O=C1CCC(N2Cc3c(OCCOCCOCCn4ccc([C@@H]5CN(C(=O)[C@@H]6CC[C@@H]7C[C@H]8C[C@H]8C[C@H](NC(=O)c8cc9cc(C(F)(F)P(=O)(O)O)ccc9s8)C(=O)N76)C6(CC6)C5)cc4=O)cccc3C2=O)C(=O)N1 (stereo partly drawn) [Compound 17, ((2-(((3S,6S,7aS,8aR,9aR)-3-((6R)-6-(1-(2-(2-(2-((2-(2,6-dioxopiperidin-3-yl)-1-oxoisoindolin-4-yl)oxy)ethoxy)ethoxy)ethyl)-2-oxo-1,2-dihydropyridin-4-yl)-4-azaspiro[2.4]heptane-4-carbonyl)-5-oxodecahydro-1H-cyclopropa[d]pyrrolo[1,2-a]azocin-6-yl)carbamoyl)benzo[b]thiophen-5-yl)difluoromethyl)phosphonic acid] |  | > 3000 |
| 100 to 1000 | 0.3 to 3 | O=C1CCC(n2c(=O)[nH]c3cc(N4CCC(n5ccc([C@@H]6CN(C(=O)[C@@H]7CC[C@@H]8C[C@H]9C[C@H]9C[C@H](NC(=O)c9cc%10cc(C(F)(F)P(=O)(O)O)ccc%10s9)C(=O)N87)C7(CC7)C6)cc5=O)CC4)ccc32)C(=O)N1 (stereo partly drawn) [Compound 19, ((2-(((3S,6S,7aS,8aR,9aR)-3-((6R)-6-(1-(1-(1-(2,6-dioxopiperidin-3-yl)-2-oxo-2,3-dihydro-1H-benzo[d]imidazol-5-yl)piperidin-4-yl)-2-oxo-1,2-dihydropyridin-4-yl)-4-azaspiro[2.4]heptane-4-carbonyl)-5-oxodecahydro-1H-cyclopropa[d]pyrrolo[1,2-a]azocin-6-yl)carbamoyl)benzo[b]thiophen-5-yl)difluoromethyl)phosphonic acid] |  | > 3000 |
